Test results: patent US20070128217A1 (priority 2003, published 2007)

Key:
[1] = system: antibodies in sera from SARS patients (sera 1a, 1b, 2, 6, 37, 62, London, SARS-yellow, SARS-green); type: binding, human; set-up: Binding of serum 6 to linear peptides of protein X1 of SARS-CoV Urbani / Binding of serum 37 to linear peptides of protein X1 of SARS-CoV Urbani / Binding of serum 6 to looped/cyclic peptide (PEPSCAN-ELISA) / Binding of serum 37 to looped/cyclic peptide (PEPSCAN-ELISA) / Binding of serum 37 to looped/cyclic peptides of protein X1 of SARS-CoV Urbani / Binding of serum 6 to linear peptides of protein X2 / Binding of serum 37 to linear peptides of protein X2 / Binding of serum 37 to looped/cyclic peptides of protein X2 of SARS-CoV Urbani / Binding of serum 6 to linear peptides of protein M of SARS-CoV Urbani / Binding of serum 37 to linear peptides of protein M of SARS-CoV Urbani / Binding of serum 6 to looped/cyclic peptides of protein M of SARS-CoV Urbani / Binding of serum 37 to looped/cyclic peptides of protein M of SARS-CoV Urbani / Binding of serum 6 to linear peptides of protein X3 of SARS-CoV Urbani / Binding of serum 37 to linear peptides of protein X3 of SARS-CoV Urbani / Binding of serum 37 to looped/cyclic peptides of protein X3 of SARS-CoV Urbani / Binding of serum 6 to linear peptides of protein X4 of SARS-CoV Urbani / Binding of serum 37 to linear peptides of protein X4 of SARS-CoV Urbani / Binding of serum 37 to looped/cyclic peptides of protein X4 of SARS-CoV Urbani / Binding of serum 6 to linear peptides of protein X5 of SARS-CoV Urbani / Binding of serum 37 to linear peptides of protein X5 of SARS-CoV Urbani / Binding of serum 37 to looped/cyclic peptides of protein X5 of SARS-CoV Urbani / Binding of serum 6 to linear peptides of protein N of SARS-CoV Urbani / Binding of serum 37 to linear peptides of protein N of SARS-CoV Urbani / Binding of serum 6 to linear peptide (PEPSCAN-ELISA) / Binding of serum 1a to looped/cyclic peptides of protein N of SARS-CoV Urbani / Binding of serum 1b to looped/cyclic peptides of protein N of SARS-CoV Urbani / Binding of serum 2 to looped/cyclic peptides of protein N of SARS-CoV Urbani / Binding of serum 6 to looped/cyclic peptides of protein N of SARS-CoV Urbani / Binding of serum 37 to looped/cyclic peptides of protein N of SARS-CoV Urbani / Binding of serum 62 to looped/cyclic peptides of protein N of SARS-CoV Urbani / Binding of serum London to looped/cyclic peptides of protein N of SARS-CoV Urbani / Binding of serum SARS-green to looped/cyclic peptides of protein N of SARS-CoV Urbani: unit not given here
[2] = system: control sera (pooled serum of ten healthy LUMC hospital workers; commercial negative donor pooled serum from the Dutch bloodbank); type: binding, human; set-up: Binding of Control serum LUMC to linear peptides / Binding of Control serum Blood-bank to linear peptides / Binding of Control serum LUMC to looped peptides / Binding of Control Serum Blood-Bank to Looped peptides / Binding of Control serum LUMC to linear peptides of the protein M of SARS-CoV Urbani / Binding of Control serum Blood-bank to linear peptides of the protein M of SARS-CoV Urbani / Binding of Control serum LUMC to looped peptides of the protein M of SARS-CoV Urbani / Binding of Control Serum Blood-Bank to Looped peptides of the protein M of SARS-CoV Urbani: unit not given here
[3] = system: rabbit serum obtained by immunizing a rabbit with the SARS-CoV strain Frankfurt 1; type: binding; set-up: Binding of a rabbit serum to linear peptides / Binding of a rabbit serum to looped peptides / Rabbit serum linear peptides / Rabbit serum looped peptides / Binding of a rabbit serum to linear peptides of protein N of SARS-CoV Urbani (Rabbit serum linear peptides) / Binding of a rabbit serum to looped/cyclic peptides of protein N of SARS-CoV Urbani (Rabbit serum looped peptides): unit not given here

FACADGTRHTYQLRA
Binding of serum 1a to linear peptides of protein X4 of SARS-CoV Urbani [1]: 0.7 | Binding of serum 1a to looped/cyclic peptides of protein X4 of SARS-CoV Urbani [1]: 0.7 | Binding of serum 1b to linear peptides of protein X4 of SARS-CoV Urbani [1]: 0.4 | Binding of serum 1b to looped/cyclic peptides of protein X4 of SARS-CoV Urbani [1]: 0.6 | Binding of serum 2 to linear peptides of protein X4 of SARS-CoV Urbani [1]: 0.4 | Binding of serum 2 to looped/cyclic peptides of protein X4 of SARS-CoV Urbani [1]: 0.6 | Binding of serum 6 to linear peptides of protein X4 of SARS-CoV Urbani [1]: 0.4 | Binding of serum 6 to looped/cyclic peptides of protein X4 of SARS-CoV Urbani [1]: 0.3 | Binding of serum 37 to linear peptides of protein X4 of SARS-CoV Urbani [1]: 0.6 | Binding of serum 37 to looped/cyclic peptides of protein X4 of SARS-CoV Urbani [1]: 0.7 | Binding of serum 62 to linear peptides of protein X4 of SARS-CoV Urbani [1]: 0.7 | Binding of serum 62 to looped/cyclic peptides of protein X4 of SARS-CoV Urbani [1]: 0.7 | Binding of serum London to linear peptides of protein X4 of SARS-CoV Urbani [1]: 0.8 | Binding of serum London to looped/cyclic peptides of protein X4 of SARS-CoV Urbani [1]: 0.4 | Binding of serum SARS-green to linear peptides of protein X4 of SARS-CoV Urbani [1]: 0.5 | Binding of serum SARS-green to looped/cyclic peptides of protein X4 of SARS-CoV Urbani [1]: 0.8 | Binding of serum SARS-yellow to linear peptides of protein X4 of SARS-CoV Urbani [1]: 0.2 | Binding of serum SARS-yellow to looped/cyclic peptides of protein X4 of SARS-CoV Urbani [1]: 0.3 | Binding of Control Serum Blood-Bank to Looped peptides [2]: 0.3 | Binding of Control serum Blood-bank to linear peptides [2]: 0.7 | Binding of Control serum LUMC to linear peptides [2]: 0.4 | Binding of Control serum LUMC to looped peptides [2]: 0.4 | Recognition of the peptide by the rabbit serum [3]: recognized

FALTCTSTHFAFACA
Binding of serum 1a to linear peptides of protein X4 of SARS-CoV Urbani [1]: 0.7 | Binding of serum 1a to looped/cyclic peptides of protein X4 of SARS-CoV Urbani [1]: 0.8 | Binding of serum 1b to linear peptides of protein X4 of SARS-CoV Urbani [1]: 0.5 | Binding of serum 1b to looped/cyclic peptides of protein X4 of SARS-CoV Urbani [1]: 0.5 | Binding of serum 2 to linear peptides of protein X4 of SARS-CoV Urbani [1]: 0.4 | Binding of serum 2 to looped/cyclic peptides of protein X4 of SARS-CoV Urbani [1]: 0.7 | Binding of serum 6 to linear peptides of protein X4 of SARS-CoV Urbani [1]: 0.5 | Binding of serum 6 to looped/cyclic peptides of protein X4 of SARS-CoV Urbani [1]: 0.5 | Binding of serum 37 to linear peptides of protein X4 of SARS-CoV Urbani [1]: 0.7 | Binding of serum 37 to looped/cyclic peptides of protein X4 of SARS-CoV Urbani [1]: 0.6 | Binding of serum 62 to linear peptides of protein X4 of SARS-CoV Urbani [1]: 0.7 | Binding of serum 62 to looped/cyclic peptides of protein X4 of SARS-CoV Urbani [1]: 0.7 | Binding of serum London to linear peptides of protein X4 of SARS-CoV Urbani [1]: 0.7 | Binding of serum London to looped/cyclic peptides of protein X4 of SARS-CoV Urbani [1]: 0.3 | Binding of serum SARS-green to linear peptides of protein X4 of SARS-CoV Urbani [1]: 0.5 | Binding of serum SARS-green to looped/cyclic peptides of protein X4 of SARS-CoV Urbani [1]: 0.5 | Binding of serum SARS-yellow to linear peptides of protein X4 of SARS-CoV Urbani [1]: 0.6 | Binding of serum SARS-yellow to looped/cyclic peptides of protein X4 of SARS-CoV Urbani [1]: 0.7 | Binding of Control Serum Blood-Bank to Looped peptides [2]: 0.7 | Binding of Control serum Blood-bank to linear peptides [2]: 0.6 | Binding of Control serum LUMC to linear peptides [2]: 0.6 | Binding of Control serum LUMC to looped peptides [2]: 0.6 | Rabbit serum linear peptides [3]: 0.6 | Rabbit serum looped peptides [3]: 0.4

FARTRSMWSFNPETN
Binding of serum 1a to linear peptides of protein M of SARS-CoV Urbani [1]: 0.8 | Binding of serum 1a to looped/cyclic peptides of protein M of SARS-CoV Urbani [1]: 0.9 | Binding of serum 1b to linear peptides of protein M of SARS-CoV Urbani [1]: 0.7 | Binding of serum 1b to looped/cyclic peptides of protein M of SARS-CoV Urbani [1]: 0.6 | Binding of serum 2 to linear peptides of protein M of SARS-CoV Urbani [1]: 0.7 | Binding of serum 2 to looped/cyclic peptides of protein M of SARS-CoV Urbani [1]: 0.6 | Binding of serum 6 to linear peptides of protein M of SARS-CoV Urbani [1]: 0.4 | Binding of serum 6 to looped/cyclic peptides of protein M of SARS-CoV Urbani [1]: 0.7 | Binding of serum 37 to linear peptides of protein M of SARS-CoV Urbani [1]: 0.9 | Binding of serum 37 to looped/cyclic peptides of protein M of SARS-CoV Urbani [1]: 0.9 | Binding of serum 62 to linear peptides of protein M of SARS-CoV Urbani [1]: 0.8 | Binding of serum 62 to looped/cyclic peptides of protein M of SARS-CoV Urbani [1]: 0.8 | Binding of serum London to linear peptides of protein M of SARS-CoV Urbani [1]: 0.4 | Binding of serum London to looped/cyclic peptides of protein M of SARS-CoV Urbani [1]: 0.3 | Binding of serum SARS-green to linear peptides of protein M of SARS-CoV Urbani [1]: 0.3 | Binding of serum SARS-green to looped/cyclic peptides of protein M of SARS-CoV Urbani [1]: 0.0 | Binding of serum SARS-yellow to linear peptides of protein M of SARS-CoV Urbani [1]: 0.1 | Binding of serum SARS-yellow to looped/cyclic peptides of protein M of SARS-CoV Urbani [1]: 0.5 | Binding of Control Serum Blood-Bank to Looped peptides of the protein M of SARS-CoV Urbani [2]: 0.8 | Binding of Control serum Blood-bank to linear peptides of the protein M of SARS-CoV Urbani [2]: 0.9 | Binding of Control serum LUMC to linear peptides of the protein M of SARS-CoV Urbani [2]: 0.5 | Binding of Control serum LUMC to looped peptides of the protein M of SARS-CoV Urbani [2]: 0.6 | Rabbit serum linear peptides [3]: 0.4 | Rabbit serum looped peptides [3]: 0.3

FLQCINACRIIMRCW
Binding of serum 1a to linear peptides of protein X1 of SARS-CoV Urbani [1]: 0.8 | Binding of serum 1a to looped/cyclic peptide (PEPSCAN-ELISA) [1]: 0.6 | Binding of serum 1b to linear peptides of protein X1 of SARS-CoV Urbani [1]: 0.6 | Binding of serum 1b to looped/cyclic peptide (PEPSCAN-ELISA) [1]: 0.4 | Binding of serum 2 to linear peptides of protein X1 of SARS-CoV Urbani [1]: 0.6 | Binding of serum 2 to looped/cyclic peptide (PEPSCAN-ELISA) [1]: 0.5 | Binding of serum 6 to linear peptides of protein X1 of SARS-CoV Urbani [1]: 0.7 | Binding of serum 6 to looped/cyclic peptide (PEPSCAN-ELISA) [1]: 0.7 | Binding of serum 37 to linear peptides of protein X1 of SARS-CoV Urbani [1]: 0.7 | Binding of serum 37 to looped/cyclic peptide (PEPSCAN-ELISA) [1]: 0.6 | Binding of serum 62 to linear peptides of protein X1 of SARS-CoV Urbani [1]: 0.6 | Binding of serum 62 to looped/cyclic peptide (PEPSCAN-ELISA) [1]: 0.6 | Binding of serum London to linear peptides of protein X1 of SARS-CoV Urbani [1]: 0.3 | Binding of serum London to looped/cyclic peptide (PEPSCAN-ELISA) [1]: 1.0 | Binding of serum SARS-green to linear peptides of protein X1 of SARS-CoV Urbani [1]: 0.3 | Binding of serum SARS-green to looped/cyclic peptide (PEPSCAN-ELISA) [1]: 0.2 | Binding of serum SARS-yellow to linear peptides of protein X1 of SARS-CoV Urbani [1]: 0.4 | Binding of serum SARS-yellow to looped/cyclic peptide (PEPSCAN-ELISA) [1]: 0.6 | Binding of Control Serum Blood-Bank to Looped peptides [2]: 0.6 | Binding of Control serum Blood-bank to linear peptides [2]: 0.8 | Binding of Control serum LUMC to linear peptides [2]: 0.9 | Binding of Control serum LUMC to looped peptides [2]: 0.6 | Binding of a rabbit serum to linear peptides [3]: 0.1 | Binding of a rabbit serum to looped peptides [3]: 0.8

FLYIIKLVFLWLLWP
Binding of serum 1a to linear peptides of protein M of SARS-CoV Urbani [1]: 0.8 | Binding of serum 1b to linear peptides of protein M of SARS-CoV Urbani [1]: 0.5 | Binding of serum 2 to linear peptides of protein M of SARS-CoV Urbani [1]: 1.0 | Binding of serum 6 to linear peptides of protein M of SARS-CoV Urbani [1]: 0.3 | Binding of serum 37 to linear peptides of protein M of SARS-CoV Urbani [1]: 0.8 | Binding of serum 62 to linear peptides of protein M of SARS-CoV Urbani [1]: 0.9 | Binding of serum London to linear peptides of protein M of SARS-CoV Urbani [1]: 0.3 | Binding of serum SARS-green to linear peptides of protein M of SARS-CoV Urbani [1]: 0.3 | Binding of serum SARS-yellow to linear peptides of protein M of SARS-CoV Urbani [1]: 0.1 | Recognition of the peptide by sera of SARS-CoV infected individuals, and form (linear, looped/cyclic) in which it is recognized [1]: recognized in looped/cyclic form | Binding of Control Serum Blood-Bank to Looped peptides of the protein M of SARS-CoV Urbani [2]: 0.8 | Binding of Control serum Blood-bank to linear peptides of the protein M of SARS-CoV Urbani [2]: 0.8 | Binding of Control serum LUMC to linear peptides of the protein M of SARS-CoV Urbani [2]: 0.4 | Binding of Control serum LUMC to looped peptides of the protein M of SARS-CoV Urbani [2]: 0.9 | Rabbit serum linear peptides [3]: 0.4 | Rabbit serum looped peptides [3]: 0.4
